Measurements taken from US9980936B2, “BH4 antagonists and methods related thereto” (Emory University, priority 2014, dated 2018).
“Also recorded” adds a separate entry of the source. Blank lines part the entries; values can stand above or below the molecule they belong to.

Legend:
[1] = system: H460 or DMS53 cells expressing Bcl2 shRNA transfected with AAAA Bcl2 mutant; test: rescue of Bcl2-silenced cells with AAAA Bcl2 mutant; type: cell-based; conditions: 72 h
Description: (§1) Whether expression of exogenous Bcl2 can restore the sensitivity of Bcl2-silenced lung cancer cells to BDA-2 and whether the BDA-2/BH4 binding is important for such effect was examined. WT and BDA-2 binding deficient D10A/N11A/R12A/E13A (AAAA) Bcl2 mutant cDNA in pCIneo or vector-only control were transfected into H460 or DMS53 cells expressing Bcl2 shRNA. It has been reported that if the shRNA is directed to the 3′ UTR or 5′ UTR of the gene, the effect of the shRNA1 can be rescued by ectopically expressing the protein using the wild-type or mutant cDNA. Because Bcl2 shRNA1 targets the 5′UTR of endogenous Bcl2, the silencing effect of shRNA1 on Bcl2 expression could be rescued by transfection of exogenous WT or AAAA Bcl2 mutant. After transfection, cells were treated with BDA-2 or the BH3 mimetic ABT-199 at the indicated concentrations for 72 h. […] The apoptotic effect of BDA-2 on lung cancer cells requires its BH4 binding.

[2] = system: H460 or DMS53 cells expressing Bcl2 shRNA transfected with WT Bcl2; test: rescue of Bcl2-silenced cells with exogenous WT Bcl2; type: cell-based; conditions: 72 h
Description: as §1

H460 cells [3] = test: SRB cell growth assay, combination with mTOR inhibitor; type: cell-based, human; conditions: BDA-366 100 nM, RAD001 1 nM, alone or in combination, 72 hr
Method: Cell growth was analyzed by sulforhodamine B (SRB) colorimetric assay.

H460 cells [4] = test: Bcl2 expression after mTOR inhibition (Western blot); type: cell-based; conditions: increasing concentrations, 24 hr
Method: (§2) A549 or H460 cells were treated with increasing concentrations of RAD001 for 24 h. Bcl2 and p-P70S6K were analyzed by Western blot.
(§3) Rapamycin and its derivative RAD001 (i.e. everolimus) are potent allosteric inhibitors of mTOR. […] Previous reports indicate that expression of Bcl2 is associated with resistance of cancer cells to mTOR inhibitors. To further test whether mTOR inhibition regulates Bcl2 expression, A549 and H460 cells were treated with increasing concentrations of RAD001 for 24 hr.

A549 cells = test: as above; type: cell-based; conditions: increasing concentrations, 24 hr
Method: as §2, §3

[5] = system: Bcl2 in tumor tissues of NSCLC patients; test: Bcl2 expression by IHC in tumor tissue of treated NSCLC patients; type: in vivo, human; conditions: 5 or 10 mg/day for 28 days, 10 NSCLC patients
Method: To test whether a similar effect of RAD001 on Bcl2 expression occurs in patients Bcl2 expression was analyzed by IHC in baseline and post-treatment tissue samples obtained from 10 NSCLC patients treated with RAD001 (5 or 10 mg/day) for 28 days as part of a neoadjuvant clinical study of everolimus in patients with resectable NSCLC. […] Thus, inhibition of Bcl2 may enhance the potency of mTOR inhibitor against lung cancer.

[6] = molecular target: purified, human Bcl2 protein (Homo sapiens, UniProt P10415); test: in vitro cell-free Bcl2 conformational change assay (IP with anti-Bcl2/BH3 domain antibody); type: biochemical
Method: To test whether BDA-2 directly induces Bcl2 conformational change, an in vitro cell-free assay was employed. Purified recombinant Bcl2 protein was incubated with increasing concentrations of BDA-2 in lysis buffer, followed by immunoprecipitation (IP) using the anti-Bcl2/BH3 domain antibody.

Plasmid pUC19 DNA = test: electrophoretic mobility shift assay (EMSA); type: binding
Method: To test whether BDA-2 reacts with DNA as a crosslinker, electrophoretic mobility shift assay (EMSA) was performed. Cisplatin, a known DNA binding agent, was used as positive control. Plasmid pUC19 DNA was incubated with BDA-2 or cisplatin.

purified recombinant Bax = test: cell-free Bax activation (IP using 6A7 Bax antibody); type: biochemical; conditions: without Bcl2
Method: BDA-366-induced Bcl2 conformational change was also confirmed by immunofluorescence using a Bcl2/BH3-domain specific antibody. […] To test this possibility, a 6A7 Bax antibody that only recognizes the conformationally changed, active, form of Bax was employed. Purified Bcl2 was treated with BDA-366 in lysis buffer for 1 h. The mixture of Bcl2/BDA-2 was then incubated with purified recombinant Bax for another 2 h, followed by IP using 6A7 antibody.
To further test whether the BH3 domain of Bcl2 is important for BDA-366 activation of Bax, purified recombinant WT and the BH3 deletion (ΔBH3) mutant Bcl2 proteins were incubated with purified Bax protein in the absence or presence of BDA-366, followed by IP with 6A7 antibody. […] To test this at the cellular or mitochondrial level, WT, ΔBH3 Bcl2 mutant and empty vector (pCIneo) were transfected into H1299 cells that express undetectable levels of endogenous Bcl2 but high levels of endogenous Bax. Cells or isolated mitochondria from these cells were treated with BDA-2, followed by IP with Bcl2 BH3 or 6A7 antibody, respectively.

Chain of purified, human Bcl2 protein (P10415 whole entry, the tested form may be a part): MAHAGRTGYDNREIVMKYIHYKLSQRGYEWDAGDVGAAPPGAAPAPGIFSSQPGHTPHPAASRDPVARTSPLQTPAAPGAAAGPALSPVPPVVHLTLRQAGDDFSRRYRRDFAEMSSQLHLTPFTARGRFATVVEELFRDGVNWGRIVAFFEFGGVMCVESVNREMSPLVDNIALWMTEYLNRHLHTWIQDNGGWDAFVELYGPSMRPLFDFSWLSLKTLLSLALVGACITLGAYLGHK

Molecule: CC1(C)CCC(CN2CCN(c3ccc(C(=O)NS(=O)(=O)c4ccc(NCC5CCOCC5)c([N+](=O)[O-])c4)c(Oc4cnc5[nH]ccc5c4)c3)CC2)=C(c2ccc(Cl)cc2)C1 [ABT-199, reference compound]
sensitivity of cells restored after expression of AAAA Bcl2 [1]: restored the sensitivity
sensitivity of cells after expression of exogenous WT Bcl2 [2]: restored sensitivity

Molecule: CO[C@H]1C[C@@H]2CC[C@@H](C)[C@@](O)(O2)C(=O)C(=O)N2CCCC[C@H]2C(=O)O[C@H]([C@H](C)C[C@@H]2CC[C@@H](OCCO)[C@H](OC)C2)CC(=O)[C@H](C)/C=C(\C)[C@@H](O)[C@@H](OC)C(=O)[C@H](C)C[C@H](C)/C=C/C=C/C=C/1C [RAD001]
cell growth inhibition (H460 cells [3]): partially inhibited lung cancer cell growth
Bcl2 expression (H460 cells [4]): up-regulation of Bcl2 in a dose-dependent manner; also recorded: up-regulates Bcl2
Bcl2 expression (A549 cells): up-regulation of Bcl2 in a dose-dependent manner; also recorded: up-regulates Bcl2
Bcl2 expression in post-treatment tumor tissues compared to baseline [5]: increased expression of Bcl2

direct induction of Bcl2 conformational change (BH3 exposure) [6]: not
Molecule: COc1cc([C@@H]2c3cc4c(cc3[C@@H](O[C@@H]3O[C@@H]5CO[C@@H](C)O[C@H]5[C@H](O)[C@H]3O)[C@H]3COC(=O)[C@H]23)OCO4)cc(OC)c1O [VP-16]

Molecule: N.N.[Cl][Pt][Cl] [cisplatin, reference compound]
binding to pUC19 DNA causing mobility shift (Plasmid pUC19 DNA): can bind to pUC19 DNA to cause mobility shift
direct induction of Bcl2 conformational change (BH3 exposure) [6]: not

Molecule: C#Cc1cccc(Nc2ncnc3cc(OCCOC)c(OCCOC)cc23)c1 [erlotinib, N-(3-ethynylphenyl)-6,7-bis(2-methoxyethoxy)quinazolin-4-amine]
Bcl-2/Bcl-XL expression (lung cancer cells): up-regulation of Bcl-2/Bcl-XL

Molecule: BAM7 [reference compound]
direct activation of Bax (purified recombinant Bax): can directly activate Bax
